# Results as given in US20240009191A1, “METHOD AND COMPOSITION FOR THE TREATMENT OF DISEASE” (DIMERIX BIOSCIENCE PTY LTD, priority 2019, published 2024).
# Legend:
# AT1R-CXCR2 heteromer [1] = biological target: T1, AT1R-CXCR2 heteromer (Homo sapiens, UniProt P25025+P30556); test: BRET Gi coupling (Receptor-HIT), CXCR2/Rluc8, Venus/mGsi and HA-AT1R, HEK293FT cells; type: cell-based
# T1 sequence (P25025 1-360): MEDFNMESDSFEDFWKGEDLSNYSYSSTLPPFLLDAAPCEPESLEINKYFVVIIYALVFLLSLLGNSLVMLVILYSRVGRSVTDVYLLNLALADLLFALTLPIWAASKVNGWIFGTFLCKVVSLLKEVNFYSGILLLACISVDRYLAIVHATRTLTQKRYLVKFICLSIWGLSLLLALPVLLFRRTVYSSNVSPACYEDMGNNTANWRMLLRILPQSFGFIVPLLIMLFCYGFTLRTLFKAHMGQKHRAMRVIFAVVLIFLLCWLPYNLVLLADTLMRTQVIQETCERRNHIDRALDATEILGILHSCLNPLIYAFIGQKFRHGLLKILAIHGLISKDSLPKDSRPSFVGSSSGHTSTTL
# T1 sequence (P30556 1-359): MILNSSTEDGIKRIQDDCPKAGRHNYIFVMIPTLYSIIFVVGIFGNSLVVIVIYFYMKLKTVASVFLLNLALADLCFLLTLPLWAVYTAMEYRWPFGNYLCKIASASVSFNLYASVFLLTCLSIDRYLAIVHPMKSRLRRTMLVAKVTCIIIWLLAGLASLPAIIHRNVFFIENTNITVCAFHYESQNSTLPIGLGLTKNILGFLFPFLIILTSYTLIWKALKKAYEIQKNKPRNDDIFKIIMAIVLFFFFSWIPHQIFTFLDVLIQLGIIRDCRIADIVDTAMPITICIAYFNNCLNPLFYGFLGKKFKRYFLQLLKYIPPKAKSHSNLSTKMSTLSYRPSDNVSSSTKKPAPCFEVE
# Protocol: HEK293FT cells were seeded in 6-well plates at a density of approximately 700,000 cells/well and maintained at 37° C., 5% CO2 in Complete Media (DMEM containing 0.3 mg/ml glutamine, 100 IU/ml penicillin and 100 μg/ml streptomycin (Gibco/Thermo Fisher)) supplemented with 10% fetal calf serum (FCS; Bovogen). […] BRET measurements were taken at 37° C. using the LUMlstarTM or CLARIOstarTM (BMG Labtech). Filtered light emissions were measured for 1 s in each of the 'donor wavelength window' (460-490 nm for LUMlstarTM or 410-490 nm for CLARIOstarTM) and 'acceptor wavelength window' (520-550 nm for LUMlstarTM or 520-620 nm for CLARIOstarTM). The BRET signal observed between interacting proteins is normalized by subtracting the background BRET ratio. This can be done in one of two ways (see Pfleger et al. (2006) Cell Signal 18:1664-1670; Pfleger et al. (2006) Nat Protoc 1:336-344): 1) the ratio of the 520-550 nm or 520-620 nm emission over the 460-490 nm or 410-490 nm emission for a cell sample containing only the donor construct is subtracted from the same ratio for a sample containing the interacting acceptor and donor fusion proteins; 2) the ratio of the 520-550 nm or 520-620 nm emission over the 460-490 nm or 410-490 nm emission for a cell sample treated with vehicle is subtracted from the same ratio for a second aliquot of the same cell sample treated with ligand. […]
# AT1R-CXCR2 heteromer [2] = biological target: T1, AT1R-CXCR2 heteromer; test: BRET trafficking of CXCR2/Rluc8 (Venus/Kras, Rab5, Rab8) with HA-AT1R, pre-treatment with vehicle or antagonists/inverse agonists; type: cell-based
# Protocol: HEK293FT cells were seeded in 6-well plates at a density of approximately 700,000 cells/well and maintained at 37° C., 5% CO2 in Complete Media (DMEM containing 0.3 mg/ml glutamine, 100 IU/ml penicillin and 100 μg/ml streptomycin (Gibco/Thermo Fisher)) supplemented with 10% fetal calf serum (FCS; Bovogen). Transient transfections were carried out 24 h after seeding using FuGene6™ (Promega) according to manufacturer instructions. 24 h post-transfection, cells were washed with PBS, detached using 0.05% trypsin/0.53 mM EDTA, resuspended in HEPES-buffered phenol red free Complete Media containing 5% FCS and added to a poly-L-lysine-coated white 96-well microplate (Greiner Bio-One). 48 h post-transfection, bioluminescence resonance energy transfer (BRET) assays were carried out following pre-incubation of cells with EnduRen™ (Promega) at a final concentration of 30 μM, at 37° C., 5% CO2 for 2 h. BRET measurements were taken at 37° C. using the LUMlstar™ or CLARIOstar™ (BMG Labtech).
# For antagonist/inverse agonist assays, cells were pre-incubated with EnduRen for 1.5 hours, followed by the addition of vehicle or antagonists/inverse agonists (10 μM) for another 30 minutes.
# The BRET signal observed between interacting proteins is normalized by subtracting the background BRET ratio. […] In the following examples, the second calculation will be used and the signal is described as ligand-induced BRET′. Furthermore, for data shown in FIGS. 4 to 20, all data points in a given set are corrected relative to the final data point prior to agonist treatment, which is fixed to zero. In keys on FIGS. 7 to 20, “>” means “followed by after 50 minutes”, with agonists added at time zero on the x-axes.
# Prior to agonist treatment (added at 0 minutes), a baseline BRET signal was recorded for each of the combinations for 20 minutes. Data were calculated as ligand-induced BRET relative to the ‘vehicle followed by vehicle’ (veh>veh) data set.
substance,measurement,setting,value
Angiotensin II [AngII],"ligand-induced BRET signal, CXCR2/Rluc8 and Venus/mGsi",AT1R-CXCR2 heteromer [1],approximately 0.05
same,proximity of CXCR2/Rluc8 to Venus/Kras (BRET),AT1R-CXCR2 heteromer [2],increased proximity
same,proximity of CXCR2/Rluc8 to Venus/Rab5 (BRET),AT1R-CXCR2 heteromer [2],very small increase
same,proximity of CXCR2/Rluc8 to Venus/Rab8 (BRET),AT1R-CXCR2 heteromer [2],clear increase
